The text below walks through data of article PMC6094047 (Antiviral Research, 2018).

The test system of assay [1] is A(H1N1)pdm09 virus neuraminidase (NA). The class given is biochemical, influenza A(H1N1)pdm09 virus.
Assay [2] shares this test system. As to conditions: cited from earlier work; for fold increases in IC50s compared to the mean IC50s: previously described A(H1N1)pdm09 virus with S110F AAS, ref Okomo-Adhiambo et al., 2014.
In assay [3] the test system is B/Victoria-lineage virus neuraminidase (NA). The class given is biochemical, influenza B/Victoria-lineage virus.
The subject of assay [4] is A(H3N2) virus neuraminidase (NA). The class given is biochemical, influenza A(H3N2) virus.
The mark [5] stands for this setting: A(H1N1)pdm09 NA H275Y, ref WHO-AVWG NAI substitution table.

“And” between values parts separate entries of the source, which are not always exact repeats. Equal values may be shown once. Read-outs that look alike come from different tables or passages of the source.

As to `[H]/N=C(\N)N[C@H]1C=C(C(=O)O)O[C@@H]([C@H](OC)[C@H](O)CO)[C@@H]1NC(C)=O` [Laninamivir], in assay [1], the “IC50 fold-change compared to reference median IC50 values” is 1.5–3.4 (8) fold and 2.9 fold. Moreover, in assay [2], the “inhibition phenotype associated with NA AAS (NI/RI/HRI)” value (“inhibition phenotype associated” for short) is listed as “HRI (key: normal inhibition (NI) (type A viruses <10-fold; reduced inhibition (RI) (type A viruses 10- to 100-fold; highly reduced inhibition (HRI) (type A viruses >100-fold)”. Besides, the “Fold change in IC50” value in assay [3] is 1.8 fold and 2.2 fold.
With `CCOC(=O)C1=C[C@@H](OC(CC)CC)[C@H](NC(C)=O)[C@@H](N)C1` [Oseltamivir], in assay [4], the “Fold change in IC50” value worked out at 14 fold and the “inhibition phenotype (NI/RI/HRI)” value is “RI (key: normal inhibition (NI) (type A viruses <10-fold; reduced inhibition (RI) (type A viruses 10- to 100-fold; highly reduced inhibition (HRI) (type A viruses >100-fold)”. The “inhibition phenotype associated” value in assay [2] (setting [5]) was “HRI (highly reduced inhibition (HRI) (type A viruses >100-fold)”. For the same molecule, in assay [2], the “inhibition phenotype associated” value is given as “HRI (key: normal inhibition (NI) (type A viruses <10-fold; reduced inhibition (RI) (type A viruses 10- to 100-fold; highly reduced inhibition (HRI) (type A viruses >100-fold)” and the “fold increases in IC50s compared to the mean IC50s” value is listed as 3–6 fold. Also, the “Fold change in IC50” value in assay [3] is 4.1 fold and 2.9 fold.
Consider `CCC(CC)[C@H](NC(C)=O)[C@@H]1[C@H](O)[C@@H](C(=O)O)C[C@H]1N=C(N)N` [Peramivir], for which, in assay [2] (setting [5]), the “inhibition phenotype associated” value is “HRI (highly reduced inhibition (HRI) (type A viruses >100-fold)”. In assay [3], the “Fold change in IC50” value is 30 fold and 26 fold.
Consider `CC(=O)N[C@H]1[C@H]([C@H](O)[C@H](O)CO)OC(C(=O)O)=C[C@@H]1N=C(N)N` [Zanamivir], for which the “Fold change in IC50” value in assay [4] was 11 fold and 8.1 fold and 9.1 fold; in assay [3], 1.4 fold and 2.0 fold. In assay [4], the “inhibition phenotype (NI/RI/HRI)” value was “RI (key: normal inhibition (NI) (type A viruses <10-fold; reduced inhibition (RI) (type A viruses 10- to 100-fold; highly reduced inhibition (HRI) (type A viruses >100-fold)”. In addition, the “fold increases in IC50s compared to the mean IC50s” value in assay [2] is 3–6 fold.
